Columns and labels:
large crabgrass = assay: Test A pre-/postemergence herbicide test; assay type: in vivo, Digitaria sanguinalis
In short: (§1)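 Both application timings were run together: directed soil spray over freshly planted seeds in sandy loam, and runoff spray onto 2–10 cm seedlings. Evaluation after ~10 days in greenhouse used a 0–100 visual scale versus untreated controls.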

giant foxtail [1] = assay: Test A pre-/postemergence herbicide test; assay type: in vivo, Setaria faberi
In short: as §1

redroot pigweed = assay: Test A pre-/postemergence herbicide test; assay type: in vivo, Amaranthus retroflexus
In short: as §1

Surinam grass = assay: Test C pre-/postemergence herbicide test; assay type: in vivo, Urochloa decumbens; details: for Plant response rating (0 = no effect, 100 = complete control), Surinam Grass / Plant response rating, Surinam Grass: preemergence; for Surinam Grass plant response rating: Preemergence, 500 g ai/ha, scale 0 to 100, 0 no effect, 100 complete control
In short: (§2)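 Emerged plants at the 1- to 4-leaf stage (2–18 cm), or freshly planted seeds, received test chemicals in a non-phytotoxic solvent mixture with surfactant. Response was visually scored against controls after 12 to 14 days in the greenhouse, on a 0 (no effect) to 100 (complete control) scale.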

giant foxtail [2] = assay: Test C pre-/postemergence herbicide test; assay type: in vivo, Setaria faberi; details: for Plant response rating (0 = no effect, 100 = complete control), Foxtail, Giant / Plant response rating, Foxtail, Giant: preemergence; for Foxtail, Giant plant response rating: Preemergence, 500 g ai/ha, scale 0 to 100, 0 no effect, 100 complete control
In short: as §2

johnsongrass = assay: Test C pre-/postemergence herbicide test; assay type: in vivo, Sorghum halepense; details: for Plant response rating (0 = no effect, 100 = complete control), Johnsongrass / Plant response rating, Johnsongrass: preemergence; for Johnsongrass plant response rating: Preemergence, 500 g ai/ha, scale 0 to 100, 0 no effect, 100 complete control
In short: as §2

kochia = assay: Test C pre-/postemergence herbicide test; assay type: in vivo, Kochia scoparia; details: for Plant response rating (0 = no effect, 100 = complete control), Kochia / Plant response rating, Kochia: preemergence; for Kochia plant response rating: Preemergence, 500 g ai/ha, scale 0 to 100, 0 no effect, 100 complete control
In short: as §2

yellow nutsedge = assay: Test C pre-/postemergence herbicide test; assay type: in vivo, Cyperus esculentus; details: for Plant response rating (0 = no effect, 100 = complete control), Nutsedge, Yellow / Plant response rating, Nutsedge, Yellow: preemergence; for Nutsedge, Yellow plant response rating: Preemergence, 500 g ai/ha, scale 0 to 100, 0 no effect, 100 complete control
In short: as §2

rice = assay: Test C flooded paddy test; assay type: in vivo, Oryza sativa; details: for Plant response rating, Rice: 500 g ai/ha, visual rating after 12 to 14 days
In short: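 Plants were grown to the 1- to 4-leaf stage (2–18 cm) and then treated postemergence, or grown to the 2-leaf stage for the flooded paddy test. They were held in a greenhouse for 12 to 14 days and then scored by eye against controls, where 0 is no effect and 100 is complete control.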

[3] = Postemergence, 500 g ai/ha, 0 to 100 scale, 0 no effect, 100 complete control
[4] = Postemergence, 2000 g ai/ha, 0 to 100 scale, 0 no effect, 100 complete control
[5] = Preemergence, 500 g ai/ha, visual rating, 0 to 100 scale (0 no effect, 100 complete control)
[6] = Preemergence, 2000 g ai/ha, 0 to 100 scale, 0 no effect, 100 complete control
[7] = 125 g ai/ha, scale 0 (no effect) to 100 (complete control), visual, 12 to 14 days
[8] = 250 g ai/ha, scale 0 to 100 (0 no effect, 100 complete control), visual, 12 to 14 days
[9] = 62 g ai/ha, scale 0 to 100 (0 no effect, 100 complete control)
[10] = 125 g ai/ha, scale of 0 to 100, 0 is no effect, 100 is complete control
[11] = 250 g ai/ha, scale of 0 to 100, 0 is no effect, 100 is complete control
[12] = scale 0 to 100 (0 no effect, 100 complete control)
[13] = Postemergence, 250 g ai/ha, 0 to 100 scale, 0 no effect, 100 complete control
[14] = Postemergence, 1000 g ai/ha, 0 to 100 scale, 0 no effect, 100 complete control
[15] = Preemergence, 1000 g ai/ha, visual rating, 0 to 100 scale (0 no effect, 100 complete control)
[16] = preemergence, 250 g ai/ha, visual injury, 0 to 100 scale (0 no effect, 100 complete control)
[17] = 125 g ai/ha, scale 0 to 100 (0 no effect, 100 complete control)
[18] = Preemergence, 2000 g ai/ha, visual rating, 0 to 100 scale (0 no effect, 100 complete control)
[19] = preemergence, 500 g ai/ha, visual injury, 0 to 100 scale (0 no effect, 100 complete control)

CCCN1CCc2c(NC(=O)c3cc(C(C)(C)C)nn3CC)cccc2C1=O [Compound 65]
Plant response rating, Crabgrass, Large (large crabgrass; [3]): 30 | Plant response rating, Crabgrass, Large (large crabgrass; [4]): 60 | Crabgrass, Large plant response rating (large crabgrass; [5]): 95 | Crabgrass, Large plant response rating (large crabgrass; [6]): 100 | Plant response rating, Foxtail, Giant (giant foxtail [1]; [3]): 30 | Plant response rating, Foxtail, Giant (giant foxtail [1]; [4]): 55 | Foxtail, Giant plant response rating (giant foxtail [1]; [5]): 40 | Foxtail, Giant plant response rating (giant foxtail [1]; [6]): 80 | Plant response rating, Pigweed (redroot pigweed; [3]): 70 | Plant response rating, Pigweed (redroot pigweed; [4]): 70 | Pigweed plant response rating (redroot pigweed; [5]): 100 | Pigweed plant response rating (redroot pigweed; [6]): 100 | Plant response rating (0 = no effect, 100 = complete control), Surinam Grass (Surinam grass; 62 g ai/ha): 0 | Plant response rating, Surinam Grass (Surinam grass; [7]): 0 | Surinam Grass plant response rating (Surinam grass): 50 | Plant response rating (0 = no effect, 100 = complete control), Foxtail, Giant (giant foxtail [2]; 62 g ai/ha): 0 | Plant response rating, Foxtail, Giant (giant foxtail [2]; [7]): 0 | Plant response rating, Foxtail, Giant (giant foxtail [2]; [8]): 20 | Foxtail, Giant plant response rating (giant foxtail [2]): 60 | Plant response rating (0 = no effect, 100 = complete control), Johnsongrass (johnsongrass; 62 g ai/ha): 10 | Plant response rating, Johnsongrass (johnsongrass; [7]): 40 | Johnsongrass plant response rating (johnsongrass): 100 | Plant response rating (0 = no effect, 100 = complete control), Kochia (kochia; 62 g ai/ha): 10 | Plant response rating, Kochia (kochia; [7]): 70 | Kochia plant response rating (kochia): 90 | Plant response rating (0 = no effect, 100 = complete control), Nutsedge, Yellow (yellow nutsedge; 62 g ai/ha): 0 | Plant response rating, Nutsedge, Yellow (yellow nutsedge; [7]): 0 | Nutsedge, Yellow plant response rating (yellow nutsedge): 0 | Rice plant response rating (rice; [9]): 0 | Rice plant response rating (rice; [10]): 0 | Rice plant response rating (rice; [11]): 25 | Plant response rating, Rice (rice; [12]): 30

CCOC(=O)c1cccc(NC(=O)c2cc(C(C)(C)C)nn2CC)c1C [Compound 88]
Crabgrass, Large plant response rating (large crabgrass; [3]): 85 | Plant response rating, Crabgrass, Large (large crabgrass; [4]): 95 | Crabgrass, Large plant response rating (large crabgrass; [5]): 45 | Crabgrass, Large plant response rating (large crabgrass; [6]): 100 | Foxtail, Giant plant response rating (giant foxtail [1]; [3]): 20 | Plant response rating, Foxtail, Giant (giant foxtail [1]; [4]): 60 | Foxtail, Giant plant response rating (giant foxtail [1]; [5]): 55 | Foxtail, Giant plant response rating (giant foxtail [1]; [6]): 90 | Pigweed plant response rating (redroot pigweed; [3]): 90 | Plant response rating, Pigweed (redroot pigweed; [4]): 100 | Pigweed plant response rating (redroot pigweed; [5]): 90 | Pigweed plant response rating (redroot pigweed; [6]): 100 | Plant response rating (0 = no effect, 100 = complete control), Surinam Grass (Surinam grass; 62 g ai/ha): 10 | Plant response rating, Surinam Grass (Surinam grass; [7]): 20 | Surinam Grass plant response rating (Surinam grass): 95 | Plant response rating (0 = no effect, 100 = complete control), Foxtail, Giant (giant foxtail [2]; 62 g ai/ha): 0 | Plant response rating, Foxtail, Giant (giant foxtail [2]; [7]): 50 | Plant response rating, Foxtail, Giant (giant foxtail [2]; [8]): 85 | Foxtail, Giant plant response rating (giant foxtail [2]): 100 | Plant response rating (0 = no effect, 100 = complete control), Johnsongrass (johnsongrass; 62 g ai/ha): 0 | Plant response rating, Johnsongrass (johnsongrass; [7]): 20 | Johnsongrass plant response rating (johnsongrass): 70 | Plant response rating (0 = no effect, 100 = complete control), Kochia (kochia; 62 g ai/ha): 0 | Plant response rating, Kochia (kochia; [7]): 85 | Kochia plant response rating (kochia): 100 | Plant response rating (0 = no effect, 100 = complete control), Nutsedge, Yellow (yellow nutsedge; 62 g ai/ha): 0 | Plant response rating, Nutsedge, Yellow (yellow nutsedge; [7]): 0 | Nutsedge, Yellow plant response rating (yellow nutsedge): 0 | Rice plant response rating (rice; [9]): 0 | Rice plant response rating (rice; [10]): 0 | Rice plant response rating (rice; [11]): 20 | Plant response rating, Rice (rice; [12]): 45

CCn1nc(C(C)(C)C)cc1C(=O)Nc1cccc(SC)c1 [Compound 131]
Crabgrass, Large plant response rating (large crabgrass; [13]): 20 | Plant response rating, Crabgrass, Large (large crabgrass; [14]): 40 | Crabgrass, Large plant response rating (large crabgrass; [15]): 85 | Crabgrass, Large plant response rating (large crabgrass; [16]): 20 | Foxtail, Giant plant response rating (giant foxtail [1]; [13]): 10 | Plant response rating, Foxtail, Giant (giant foxtail [1]; [14]): 15 | Foxtail, Giant plant response rating (giant foxtail [1]; [15]): 75 | Foxtail, Giant plant response rating (giant foxtail [1]; [16]): 10 | Pigweed plant response rating (redroot pigweed; [13]): 45 | Plant response rating, Pigweed (redroot pigweed; [14]): 75 | Pigweed plant response rating (redroot pigweed; [15]): 90 | Pigweed plant response rating (redroot pigweed; [16]): 40 | Plant response rating (0 = no effect, 100 = complete control), Surinam Grass (Surinam grass; 62 g ai/ha): 0 | Plant response rating, Surinam Grass (Surinam grass; [7]): 0 | Plant response rating (0 = no effect, 100 = complete control), Foxtail, Giant (giant foxtail [2]; 62 g ai/ha): 20 | Plant response rating, Foxtail, Giant (giant foxtail [2]; [7]): 20 | Plant response rating, Foxtail, Giant (giant foxtail [2]; [8]): 45 | Plant response rating (0 = no effect, 100 = complete control), Johnsongrass (johnsongrass; 62 g ai/ha): 15 | Plant response rating, Johnsongrass (johnsongrass; [7]): 40 | Plant response rating (0 = no effect, 100 = complete control), Kochia (kochia; 62 g ai/ha): 85 | Plant response rating, Kochia (kochia; [7]): 85 | Plant response rating, Nutsedge, Yellow (yellow nutsedge; 31 g ai/ha, scale 0 to 100, last section of Table C): 0 | Plant response rating (0 = no effect, 100 = complete control), Nutsedge, Yellow (yellow nutsedge; 62 g ai/ha): 0 | Plant response rating, Nutsedge, Yellow (yellow nutsedge; [7]): 0 | Rice plant response rating (rice; [9]): 0 | Rice plant response rating (rice; [17]): 0 | Rice plant response rating (rice; [11]): 0 | Plant response rating, Rice (rice; [12]): 10

C=CCNC(=O)c1cccc(NC(=O)c2sc(C(C)(C)C)nc2CC)c1 [Compound 207]
Crabgrass, Large plant response rating (large crabgrass; [3]): 20 | Plant response rating, Crabgrass, Large (large crabgrass; [4]): 65 | Crabgrass, Large plant response rating (large crabgrass; [18]): 90 | Crabgrass, Large plant response rating (large crabgrass; [19]): 95 | Foxtail, Giant plant response rating (giant foxtail [1]; [3]): 10 | Plant response rating, Foxtail, Giant (giant foxtail [1]; [4]): 50 | Foxtail, Giant plant response rating (giant foxtail [1]; [18]): 90 | Foxtail, Giant plant response rating (giant foxtail [1]; [19]): 75 | Pigweed plant response rating (redroot pigweed; [3]): 30 | Plant response rating, Pigweed (redroot pigweed; [4]): 45 | Pigweed plant response rating (redroot pigweed; [18]): 100 | Pigweed plant response rating (redroot pigweed; [19]): 100 | Plant response rating, Surinam Grass (Surinam grass; 62 g ai/ha, scale 0 to 100): 0 | Plant response rating, Surinam Grass (Surinam grass; [7]): 0 | Plant response rating, Surinam Grass (Surinam grass; 250 g ai/ha, scale 0-100): 0 | Surinam Grass plant response rating (Surinam grass): 10 | Plant response rating, Foxtail, Giant (giant foxtail [2]; 62 g ai/ha, scale 0 to 100): 0 | Plant response rating, Foxtail, Giant (giant foxtail [2]; [7]): 0 | Plant response rating, Foxtail, Giant (giant foxtail [2]; 250 g ai/ha, scale 0-100): 10 | Foxtail, Giant plant response rating (giant foxtail [2]): 100 | Plant response rating, Johnsongrass (johnsongrass; 62 g ai/ha, scale 0 to 100): 0 | Plant response rating, Johnsongrass (johnsongrass; [7]): 10 | Plant response rating, Johnsongrass (johnsongrass; 250 g ai/ha, scale 0-100): 40 | Johnsongrass plant response rating (johnsongrass): 50 | Plant response rating, Kochia (kochia; 62 g ai/ha, scale 0 to 100): 90 | Plant response rating, Kochia (kochia; [7]): 90 | Plant response rating, Kochia (kochia; 250 g ai/ha, scale 0-100): 90 | Kochia plant response rating (kochia): 95 | Plant response rating, Nutsedge, Yellow (yellow nutsedge; 62 g ai/ha, scale 0 to 100): 0 | Plant response rating, Nutsedge, Yellow (yellow nutsedge; [7]): 0 | Plant response rating, Nutsedge, Yellow (yellow nutsedge; 250 g ai/ha, scale 0-100): 20 | Nutsedge, Yellow plant response rating (yellow nutsedge): 20 | Rice plant response rating (rice; [9]): 30 | Rice plant response rating (rice; [17]): 45 | Rice plant response rating (rice; [11]): 50 | Plant response rating, Rice (rice; [12]): 60
